In US20260137677A1, “PROTACS USEFUL AGAINST THE MAIN PROTEASE SARS-COV-2” (Tocris Cookson Limited, priority 2022, published 2026):

Assays:
[1] = system: SARS-CoV-2 (SARS-CoV2/ZG/297-20) in Vero E6 cells; experiment: microbe, parasite or virus in culture; assay type: cell-based; details: Severe acute respiratory syndrome coronavirus 2, Vero C1008, 72 h; for inhibition at 10 µM: read-out: Antiviral Activity 10 uM; for inhibition at 50 µM: read-out: Antiviral Activity 50 uM
[2] = target: T1, recombinant SARS-CoV-2 main protease (Mpro) (Severe acute respiratory syndrome coronavirus 2, UniProt P0DTD1); experiment: biochemical; details: FRET assay, Mpro 50 nM, substrate 10 μM
T1 construct: the main protease (Mpro; also called 3CLpro) which has an essential role in processing the polyproteins

`O=C1CCC(N2C(=O)c3cccc(NCCOCCOCCOCCNC(=O)C(NC(=O)[C@@H](c4cccnc4)N(C(=O)c4ccco4)c4ccc5c(c4)oc4ccccc45)c4ccccc4)c3C2=O)C(=O)N1` (mixture of isomers) [TS297F1] gave an inhibition at 10 µM [1] of under 0%, an inhibition at 50 µM [1] of under 0% and an IC50 [2] of under 1 µM.
Compound `O=C1CCC(N2C(=O)c3cccc(NCCCCCNC(=O)C(NC(=O)[C@@H](c4cccnc4)N(C(=O)c4ccco4)c4ccc5c(c4)oc4ccccc45)c4ccccc4)c3C2=O)C(=O)N1` (mixture of isomers) [TS301F1] has an inhibition at 10 µM [1] of under 0%, an inhibition at 50 µM [1] of under 0% and an IC50 [2] of 10 to 25 µM.
With `O=C1CCC(N2C(=O)c3cccc(NCCOCCOCCOCCOCCNC(=O)C(NC(=O)[C@@H](c4cccnc4)N(C(=O)c4ccco4)c4ccc5c(c4)oc4ccccc45)c4ccccc4)c3C2=O)C(=O)N1` (mixture of isomers) [TS303F1] the inhibition at 10 µM [1] was under 0%, the inhibition at 50 µM [1] was under 0% and the IC50 [2] was under 1 µM.
Work on `O=C1CCC(N2C(=O)c3cccc(NCCOCCNC(=O)C(NC(=O)[C@@H](c4cccnc4)N(C(=O)c4ccco4)c4ccc5c(c4)oc4ccccc45)c4ccccc4)c3C2=O)C(=O)N1` (mixture of isomers) [TS312F1] yielded an inhibition at 10 µM [1] of under 0%, an inhibition at 50 µM [1] of under 0% and an IC50 [2] of under 10 µM.
For `O=C1CCC(N2C(=O)c3cccc(NCCCCNC(=O)[C@@H](NC(=O)C(c4cccnc4)N(C(=O)c4ccco4)c4ccc5c(c4)oc4ccccc45)c4ccccc4)c3C2=O)C(=O)N1` (mixture of isomers) [TS313F1], the inhibition at 10 µM [1] was under 25%, the inhibition at 50 µM [1] was under 0% and the IC50 [2] was under 1 µM.
Compound `O=C1CCC(N2C(=O)c3cccc(NCCNC(=O)[C@@H](NC(=O)[C@@H](c4cccnc4)N(C(=O)c4ccco4)c4ccc5c(c4)oc4ccccc45)c4ccccc4)c3C2=O)C(=O)N1` (mixture of isomers) [TS365F1] has an inhibition at 10 µM [1] of under 75%, an inhibition at 50 µM [1] of under 25% and an IC50 [2] of under 1 µM.
Work on `O=C1CCC(N2C(=O)c3cccc(NCCCCCCCCNC(=O)[C@@H](NC(=O)C(c4cccnc4)N(C(=O)c4ccco4)c4ccc5c(c4)oc4ccccc45)c4ccccc4)c3C2=O)C(=O)N1` (mixture of isomers) [TS369F1] yielded an inhibition at 10 µM [1] of under 25%, an inhibition at 50 µM [1] of under 25% and an IC50 [2] of over 25 µM.
Compound `O=C1CCC(N2C(=O)c3cccc(NCCNC(=O)[C@H](NC(=O)[C@@H](c4cccnc4)N(C(=O)c4ccco4)c4ccc(-c5ccccc5)cc4)c4ccccc4)c3C2=O)C(=O)N1` (mixture of isomers) [TS449F1] has an inhibition at 10 µM [1] of under 0%, an inhibition at 50 µM [1] of under 0% and an IC50 [2] of under 0.1 µM.
In the case of `O=C1CCC(N2C(=O)c3cccc(NCCCCNC(=O)[C@H](NC(=O)[C@@H](c4cccnc4)N(C(=O)c4ccco4)c4ccc(-c5ccccc5)cc4)c4ccccc4)c3C2=O)C(=O)N1` (mixture of isomers) [TS451F1], the inhibition at 10 µM [1] is reported as under 0%, the inhibition at 50 µM [1] is reported as under 0% and the IC50 [2] is reported as under 10 µM.
In the case of `O=C1CCC(N2C(=O)c3cccc(NCCOCCOCCOCCNC(=O)[C@H](NC(=O)[C@@H](c4cccnc4)N(C(=O)c4ccco4)c4ccc(-c5ccccc5)cc4)c4ccccc4)c3C2=O)C(=O)N1` (mixture of isomers) [TS455F1], the inhibition at 10 µM [1] is reported as under 0%, the inhibition at 50 µM [1] is reported as under 0% and the IC50 [2] is reported as under 0.1 µM.
Work on `O=C1CCC(N2C(=O)c3cccc(NCCCNC(=O)[C@@H](NC(=O)[C@@H](c4cccnc4)N(C(=O)c4ccco4)c4ccc(-c5ccccc5)cc4)c4ccccc4)c3C2=O)C(=O)N1` (single isomer, unassigned) [TS450F1] yielded an inhibition at 10 µM [1] of under 0%, an inhibition at 50 µM [1] of under 0% and an IC50 [2] of under 1 µM.
`O=C1CCC(N2C(=O)c3cccc(NCCOCCNC(=O)[C@@H](NC(=O)[C@@H](c4cccnc4)N(C(=O)c4ccco4)c4ccc(-c5ccccc5)cc4)c4ccccc4)c3C2=O)C(=O)N1` (single isomer, unassigned) [TS453F1b] gave an inhibition at 10 µM [1] of under 0%, an inhibition at 50 µM [1] of under 0% and an IC50 [2] of under 1 µM.
With `O=C1CCC(N2C(=O)c3cccc(NCCOCCOCCNC(=O)C(NC(=O)C(c4cccnc4)N(C(=O)c4ccco4)c4ccc(-c5ccccc5)cc4)c4ccccc4)c3C2=O)C(=O)N1` (single isomer, unassigned) [TS454F1] the inhibition at 10 µM [1] was under 0%, the inhibition at 50 µM [1] was under 0% and the IC50 [2] was under 1 µM.
`O=C1CCC(N2C(=O)c3ccc(NCCOCCNC(=O)[C@H](NC(=O)[C@@H](c4cccnc4)N(C(=O)c4ccco4)c4ccc(-c5ccccc5)cc4)c4ccccc4)cc3C2=O)C(=O)N1` (single isomer, unassigned) [TS462] gave an inhibition at 10 µM [1] of under 25%, an inhibition at 50 µM [1] of under 25% and an IC50 [2] of under 1 µM.
With `O=C1CCC(N2C(=O)c3ccc(NCCOCCOCCNC(=O)[C@H](NC(=O)[C@@H](c4cccnc4)N(C(=O)c4ccco4)c4ccc(-c5ccccc5)cc4)c4ccccc4)cc3C2=O)C(=O)N1` (single isomer, unassigned) [TS464] the inhibition at 10 µM [1] was under 0%, the inhibition at 50 µM [1] was under 25% and the IC50 [2] was under 1 µM.
With `O=C1CCC(N2C(=O)c3ccc(NCCOCCOCCOCCNC(=O)[C@H](NC(=O)[C@@H](c4cccnc4)N(C(=O)c4ccco4)c4ccc(-c5ccccc5)cc4)c4ccccc4)cc3C2=O)C(=O)N1` (single isomer, unassigned) [TS465] the inhibition at 10 µM [1] was under 25%, the inhibition at 50 µM [1] was under 50% and the IC50 [2] was under 0.1 µM.
`O=C1CCC(N2C(=O)c3ccc(N4CCN(C(=O)[C@H](NC(=O)[C@@H](c5cccnc5)N(C(=O)c5ccco5)c5ccc(-c6ccccc6)cc5)c5ccccc5)CC4)cc3C2=O)C(=O)N1` (single isomer, unassigned) [TS466] gave an inhibition at 10 µM [1] of under 0%, an inhibition at 50 µM [1] of under 0% and an IC50 [2] of under 0.1 µM.
Compound `O=C1CCC(N2C(=O)c3cc(F)c(N4CCN(C(=O)[C@H](NC(=O)[C@@H](c5cccnc5)N(C(=O)c5ccco5)c5ccc(-c6ccccc6)cc5)c5ccccc5)CC4)cc3C2=O)C(=O)N1` (single isomer, unassigned) [TS467] has an inhibition at 10 µM [1] of under 25%, an inhibition at 50 µM [1] of under 25% and an IC50 [2] of under 0.1 µM.
In the case of `O=C1CCC(N2C(=O)c3ccc(N4CCN(CC5CCN(C(=O)[C@H](NC(=O)[C@@H](c6cccnc6)N(C(=O)c6ccco6)c6ccc(-c7ccccc7)cc6)c6ccccc6)CC5)CC4)cc3C2=O)C(=O)N1` (single isomer, unassigned) [TS470], the inhibition at 10 µM [1] is reported as under 25%, the inhibition at 50 µM [1] is reported as under 50% and the IC50 [2] is reported as under 0.1 µM.
`O=C1CCC(N2C(=O)c3cc(F)c(N4CCN(CC5CCN(C(=O)[C@H](NC(=O)[C@@H](c6cccnc6)N(C(=O)c6ccco6)c6ccc(-c7ccccc7)cc6)c6ccccc6)CC5)CC4)cc3C2=O)C(=O)N1` (single isomer, unassigned) [TS471] was tested, and the inhibition at 10 µM [1] was under 25%, the inhibition at 50 µM [1] was under 25% and the IC50 [2] was under 1 µM.
In the case of `O=C(COc1ccc(C2CCC(=O)NC2=O)cc1)NCCNC(=O)[C@H](NC(=O)[C@@H](c1cccnc1)N(C(=O)c1ccco1)c1ccc(-c2ccccc2)cc1)c1ccccc1` (single isomer, unassigned) [TS476], the inhibition at 10 µM [1] is reported as under 0%, the inhibition at 50 µM [1] is reported as under 0% and the IC50 [2] is reported as under 0.1 µM.
Compound `O=C(COc1ccc(C2CCC(=O)NC2=O)cc1)NCCCCNC(=O)[C@H](NC(=O)[C@@H](c1cccnc1)N(C(=O)c1ccco1)c1ccc(-c2ccccc2)cc1)c1ccccc1` (single isomer, unassigned) [TS477] has an inhibition at 10 µM [1] of under 0%, an inhibition at 50 µM [1] of under 0% and an IC50 [2] of under 0.1 µM.
For `C[C@H](NC(=O)[C@@H](c1cccnc1)N(C(=O)c1ccco1)c1ccc(-c2ccccc2)cc1)c1ccccc1OCCCCOc1cccc2c1C(=O)N(C1CCC(=O)NC1=O)C2=O` (stereo in doubt) [TS355F1], the IC50 [2] was under 10 µM.
`O=C1CCC(N2C(=O)c3cccc(OCCCCCCC(=O)Nc4cccn([C@@H](CC5CC5)C(=O)N[C@@H](C[C@@H]5CCNC5=O)C(=O)C(=O)NCc5ccccc5)c4=O)c3C2=O)C(=O)N1` (some centres unmarked) [BT150] gave an inhibition at 10 µM [1] of under 25%, an inhibition at 50 µM [1] of under 25% and an IC50 [2] of under 1 µM.
`O=C1CCC(N2C(=O)c3cccc(OCCCCCCCC(=O)Nc4cccn([C@@H](CC5CC5)C(=O)N[C@@H](C[C@@H]5CCNC5=O)C(=O)C(=O)NCc5ccccc5)c4=O)c3C2=O)C(=O)N1` (some centres unmarked) [BT152] gave an inhibition at 10 µM [1] of under 25%, an inhibition at 50 µM [1] of under 50% and an IC50 [2] of under 1 µM.
`O=C1CCC(N2C(=O)c3cccc(OCCCCCCNC(=O)c4ccc5cncc(N6C(=O)NC7(CC(c8ccccc8Cl)C7)C6=O)c5c4)c3C2=O)C(=O)N1` (centres unmarked) [Compound C10778L, 4-(2-(2-chlorophenyl)-6,8-dioxo-5,7-diazaspiro[3.4]octan-7-yl)-N-(6-((2-(2,6-dioxopiperidin-3-yl)-1,3-dioxoisoindolin-4-yl)oxy)hexyl)isoquinoline-6-carboxamide] showed an inhibition at 10 µM [1] of under 25%, an inhibition at 50 µM [1] of under 25% and an IC50 [2] of under 0.1 µM.
In the case of `O=C1CCC(N2C(=O)c3cccc(NCCOCCOCCNC(=O)[C@@H](NC(=O)C(c4cccnc4)N(C(=O)c4ccco4)c4ccc5c(c4)oc4ccccc45)c4ccccc4)c3C2=O)C(=O)N1` (some centres unmarked) [TS302F1], the IC50 [2] is reported as under 10 µM.
Work on `C[C@@H](NC(=O)[C@H](c1cccnc1)N(C(=O)c1ccco1)c1ccc(-c2ccccc2)cc1)c1cccc(OCCCCOc2cccc3c2C(=O)N(C2CCC(=O)NC2=O)C3=O)c1` (some centres unmarked) [TS325F1] yielded an IC50 [2] of under 10 µM.
For `C[C@@H](NC(=O)C(c1cccnc1)N(C(=O)c1ccco1)c1ccc(-c2ccccc2)cc1)c1cccc(OCCCCOc2cccc3c2C(=O)N(C2CCC(=O)NC2=O)C3=O)c1` (some centres unmarked) [TS325F2], the IC50 [2] was under 10 µM.
`C[C@@H](NC(=O)[C@H](c1cccnc1)N(C(=O)c1ccco1)c1ccc(-c2ccccc2)cc1)c1cccc(OCCOc2cccc3c2C(=O)N(C2CCC(=O)NC2=O)C3=O)c1` (some centres unmarked) [TS338F1] gave an IC50 [2] of 10 to 25 µM.
In the case of `C[C@@H](NC(=O)[C@H](c1cccnc1)N(C(=O)c1ccco1)c1ccc(-c2ccccc2)cc1)c1cccc(OCCCCCCCCOc2cccc3c2C(=O)N(C2CCC(=O)NC2=O)C3=O)c1` (some centres unmarked) [TS339F2], the IC50 [2] is reported as 10 to 25 µM.
Work on `Cc1ncsc1-c1ccc(CNC(=O)[C@@H]2C[C@@H](O)CN2C(=O)[C@@H](NC(=O)C2(F)CC2)C(C)(C)C)c(OCCNC(=O)[C@@H](NC(=O)C(c2cccnc2)N(C(=O)c2ccco2)c2ccc3c(c2)oc2ccccc23)c2ccccc2)c1` (some centres unmarked) [TS347F1] yielded an IC50 [2] of under 10 µM.
`Cc1ncsc1-c1ccc(CNC(=O)[C@@H]2C[C@@H](O)CN2C(=O)[C@@H](NC(=O)C2(F)CC2)C(C)(C)C)c(OCCCCCCNC(=O)[C@@H](NC(=O)C(c2cccnc2)N(C(=O)c2ccco2)c2ccc3c(c2)oc2ccccc23)c2ccccc2)c1` (some centres unmarked) [TS349F1] showed an IC50 [2] of under 10 µM.
